Reference: US6838481B1, “Skin whitener” (LG Household & Health Care Ltd., priority 1998, dated 2005)

How the values were obtained:
[1] = tested on: B-16 mouse melanoma cells; assay: Melanin formation inhibiting effects of EL-1 at the cellular level; format: cell-based; details: for Melanin formation amount: cultured 3 days, repetition number = 3; for Inhibition ratio (%): melanin formation relative to control; for Cell toxicity: final conc. 10 μg/ml
Method: The whitening effect was tested at the cellular level by adding EL-1 obtained from the above EXAMPLES 1 to 7 to a cultured solution of B-16 mouse melanoma cells (Lotan R., Lotan D. Cancer Res. 40:3345-3350, 1980) as follows.
The EL-1 obtained in EXAMPLES 1 to 7 was added to a culture solution of B-16 mouse melanoma cells so that the final concentrations become 1 μg/ml, 5 μg/ml and 50 μg/ml respectively, and they were cultured for 3 days. After trypsin was added to the cells and the solution was removed from the culture container and centrifuged, melanin was extracted. 1 ml of sodium hydroxide solution (1 N concentration) was added to the extracted melanin and boiled for about 10 minutes to dissolve the melanin. The test was carried out in a way whereby the formed melanin amount was represented in absorbance per unit cell number, expressed as A400/10^6 cells by measuring the absorbance at 400 nm. After repeating this test 3 times, the melanin formation amount relative to the control was calculated as an inhibition ratio (%) using the average values.

[2] = tested on: B-16 mouse melanoma cells; assay: as above; format: cell-based; details: concentration of 50 μg/ml

SMILES: Oc1ccc(O)cc1 [Hydroquinone, reference compound]
- Melanin formation amount ([1]; final conc. 1 μg/ml): 0.025 ± 0.002 A400/10^6 cells
- Inhibition ratio (%) ([1]; final conc. 1 μg/ml): 43%
- Cell toxicity [1]: Cell extinction
- Cell toxicity ([1]; listed as hydroquinone): high cell toxicity

SMILES: C=C1CCC2C(/C=C(\C)C(=O)C3(OC(C)=O)CC(C)C(OC(=O)c4ccccc4)C3C1OC(C)=O)C2(C)C (stereo not drawn) [EL-1, 5,15-diacetyl-3-benzoyllathyrol]
- Melanin formation amount ([1]; final conc. 1 μg/ml): 0.032 ± 0.001 A400/10^6 cells
- Inhibition ratio (%) ([1]; final conc. 1 μg/ml): 28%
- Melanin formation amount ([1]; final conc. 5 μg/ml): 0.019 ± 0.003 A400/10^6 cells
- Inhibition ratio (%) ([1]; final conc. 5 μg/ml): 57%
- Melanin formation amount ([1]; final conc. 50 μg/ml): 0.007 ± 0.001 A400/10^6 cells
- Inhibition ratio (%) ([1]; final conc. 50 μg/ml): 85%
- Melanin synthesis inhibiting effect ([1]; mouse B-16 melanoma cells treated): very strong melanin synthesis inhibiting effect
- Cell toxicity [2]: does not show cell toxicity
